Laboratory results taken from patent publication US20100197604A1, “USE OF PEPTIDE AS A THERAPEUTIC AGENT” (priority 2007, published 2010).

How the values were obtained:
[1] = test system: MRSA; details: 5 micrograms per ml
[2] = test system: Pseudomonas aeruginosa; assay type: cell-based; details: 5 micrograms per ml
[3] = test system: Streptococcus pneumoniae; assay type: cell-based; details: 5 micrograms per ml
[4] = test system: HepG2-2.2.15 cells; experiment: Cytotoxicity in HepG2-2.2.15 cells (dye uptake); details: test peptide 10 micrograms per ml
[5] = test system: CEM-SS cells; experiment: Cytotoxicity in CEM-SS cells (MTS cell viability); details: peptide 10 micrograms per ml
[6] = test system: HIV-1IIIB; experiment: HIV-1 antiviral assay (CPE reduction, MTS); assay type: cell-based; details: peptide 10 micrograms per ml, 6 days post-infection
[7] = test system: MRC-5 cells (human embryonal lung fibroblasts); details: 6 days

CC[C@H](C)[C@H](NC(=O)[C@H](Cc1ccc(O)cc1)NC(=O)[C@@H](NC(=O)[C@H](CCCNC(=N)N)NC(=O)[C@@H](N)CC(=O)O)C(C)C)C(=O)N[C@@H](Cc1c[nH]cn1)C(=O)N1CCC[C@H]1C(=O)N[C@@H](Cc1ccccc1)C(=O)O [Angiotensin II]
% inhibition [1]: 0.0% | % inhibition [2]: 0.0% | % inhibition [3]: 100.0%

Nc1ccn([C@@H]2CS[C@H](CO)O2)c(=O)n1 [Compound 3TC, Lamivudine]
% Cell viability [4]: 95.8%

Cc1cn([C@H]2C[C@H](N=[N+]=[N-])[C@@H](CO)O2)c(=O)[nH]c1=O [AZT]
% Cell viability [5]: 97% | % CPE reduction in HIV-1 infected CEM-SS cells [6]: 99%

Nc1nc(O)c2ncn(COC(CO)CO)c2n1 [Ganciclovir]
% Cell viability [7]: 100%
